The text below walks through data of patent US8969405B2, “Anticancer compounds and methods of making and using same” (St. Jude Children's Research Hospital, priority 2008, dated 2015).

Data set [1] relates to PC-3 prostate cancer cell line. In words: In vitro cytotoxicity analysis (XTT), 72-hour exposure. Particulars: Homo sapiens, PC3 cells. Type of data set: cell-based. As to the method: (§1) Briefly, cell lines were seeded at various cell densities depending on the cell type.
(§2) Tables 1-3 display cytotoxicity data for exemplary compounds following a 72-hour exposure.
In general terms: Tetrazolium assays rely on reduction of a dye to a coloured formazan, in cell work by metabolically active cells.

Data set [2] relates to JeKo-1 mantle cell lymphoma cell line. The description is as above. The format is cell-based. Particulars: Homo sapiens, JEKo1 cells. As for the experimental part:
as §1, §2

The test system of data set [3] is JVM-2 mantle cell lymphoma cell line. The data set is described as above. Type of data set: cell-based. Particulars: Homo sapiens, JVM-2 cells. As to the method: as §1, §2
Data set [4] relates to WiDr colorectal cancer cell line. The data set is described as above. The format is cell-based. Particulars: Homo sapiens, read-out: Cytotoxicity IC50. As for the experimental part:
as §1

Data set [5] is described as follows: Stability study in buffer solution by HPLC. Type of data set: physicochemical. Particulars: 100 μM in PBS, pH 7.4. As to the method: Stability studies were performed for exemplary compounds 48 and 15. A 100 μM solution of compound 48 was prepared in buffer (PBS, pH 7.4) and warfarin was used as an internal standard. A sample was injected into a HPLC periodically starting at day 0 and ending at about 6 weeks to find out the stability of compound 48 in PBS solution. […] After 6 weeks, 58% of compound 48 remained in the buffer solution.

Structures are written as SMILES.

`CC(/C=C/[C@@H]1C[C@]2(CO2)CC(C)(C)O1)=C\C[C@H]1CC[C@@H](NC(=O)/C=C\[C@H](C)OC(=O)C2CCN(C)CC2)CC1` [Compound 16, (S,Z)-5-((1R,4R)-4-((2E,4E)-5-((3R,5S)-7,7-dimethyl-1,6-dioxaspiro[2.5]octan-5-yl)-3-methylpenta-2,4-dienyl)cyclohexylamino)-5-oxopent-3-en-2-yl 1-methylpiperidine-4-carboxylate]: the values for the IC50 in data set [1] and in data set [2] were 10000 nM and over 1000 nM, respectively.
The matching figures for `CC(/C=C/[C@@H]1C[C@]2(CO2)CC(C)(C)O1)=C\C[C@H]1CC[C@@H](NC(=O)/C=C\[C@H](C)OC(=O)C2CCOCC2)CC1` [Compound 17, (S,Z)-5-((1R,4R)-4-((2E,4E)-5-((3R,5S)-7,7-dimethyl-1,6-dioxaspiro[2.5]octan-5-yl)-3-methylpenta-2,4-dienyl)cyclohexylamino)-5-oxopent-3-en-2-yl tetrahydro-2H-pyran-4-carboxylate]: 1970 nM and 440 nM.
In the case of `CC(/C=C/[C@@H]1C[C@]2(CO2)CC(C)(C)O1)=C\C[C@H]1CC[C@@H](NC(=O)/C=C\[C@H](C)OC(=O)c2ccco2)CC1` [Compound 18, (S,Z)-5-((1R,4R)-4-((2E,4E)-5-((3R,5S)-7,7-dimethyl-1,6-dioxaspiro[2.5]octan-5-yl)-3-methylpenta-2,4-dienyl)cyclohexylamino)-5-oxopent-3-en-2-yl furan-2-carboxylate], the figures for the 50% inhibitory concentration (IC50) in data set [1] and in data set [2] were 3500 nM and 140 nM, respectively.
The matching figures for `CC(/C=C/[C@@H]1C[C@]2(CO2)CC(C)(C)O1)=C\C[C@H]1CC[C@@H](NC(=O)/C=C\[C@H](C)OC(=O)c2cccn2C)CC1` [Compound 19, (S,Z)-5-((1R,4R)-4-((2E,4E)-5-((3R,5S)-7,7-Dimethyl-1,6-dioxaspiro[2.5]octan-5-yl)-3-methylpenta-2,4-dienyl)cyclohexylamino)-5-oxopent-3-en-2-yl 1-methyl-1H-pyrrole-2-carboxylate]: 4300 nM and 390 nM.
The corresponding values for `CC(/C=C/[C@@H]1C[C@]2(CO2)CC(C)(C)O1)=C\C[C@H]1CC[C@@H](NC(=O)/C=C\[C@H](C)OC(=O)c2ccccc2)CC1` [Compound 20, (S,Z)-5-((1R,4R)-4-((2E,4E)-5-((3R,5S)-7,7-dimethyl-1,6-dioxaspiro[2.5]octan-5-yl)-3-methylpenta-2,4-dienyl)cyclohexylamino)-5-oxopent-3-en-2-yl benzoate] are 4900 nM and 410 nM.
The matching figures for `CC(/C=C/[C@@H]1C[C@]2(CO2)CC(C)(C)O1)=C\C[C@H]1CC[C@@H](NC(=O)/C=C\[C@H](C)OC(=O)c2cccnc2)CC1` [Compound 21, (S,Z)-5-((1R,4R)-4-((2E,4E)-5-((3R,5S)-7,7-dimethyl-1,6-dioxaspiro[2.5]octan-5-yl)-3-methylpenta-2,4-dienyl)cyclohexylamino)-5-oxopent-3-en-2-yl nicotinate]: 8100 nM and 160 nM.
For `CC(/C=C/[C@@H]1C[C@]2(CO2)CC(C)(C)O1)=C\C[C@H]1CC[C@@H](NC(=O)/C=C\[C@H](C)OC(=O)C2CCN(c3ccnc(C(F)(F)F)n3)CC2)CC1` [Compound 22, (S,Z)-5-((1R,4R)-4-((2E,4E)-5-((3R,5S)-7,7-dimethyl-1,6-dioxaspiro[2.5]octan-5-yl)-3-methylpenta-2,4-dienyl)cyclohexylamino)-5-oxopent-3-en-2-yl 1-(2-(trifluoromethyl)pyrimidin-4-yl)piperidine-4-carboxylate], the IC50 in data set [1] is over 10000 nM; in data set [2], over 1000 nM.
The matching figures for `CC(/C=C/[C@@H]1C[C@]2(CO2)CC(C)(C)O1)=C\C[C@H]1CC[C@@H](NC(=O)/C=C\[C@H](C)OC(=O)C(C)(C)C)CC1` [Compound 23, (S,Z)-5-((1R,4R)-4-((2E,4E)-5-((3R,5S)-7,7-dimethyl-1,6-dioxaspiro[2.5]octan-5-yl)-3-methylpenta-2,4-dienyl)cyclohexylamino)-5-oxopent-3-en-2-yl pivalate]: 760 nM and 30 nM.
As for `CC(/C=C/[C@@H]1C[C@]2(CO2)CC(C)(C)O1)=C\C[C@H]1CC[C@@H](NC(=O)/C=C\[C@H](C)OC(=O)N2CCN(C3CCCCCC3)CC2)CC1` [Compound 24, (S,Z)-5-((1R,4R)-4-((2E,4E)-5-((3R,5S)-7,7-dimethyl-1,6-dioxaspiro[2.5]octan-5-yl)-3-methylpenta-2,4-dienyl)cyclohexylamino)-5-oxopent-3-en-2-yl 4-cycloheptylpiperazine-1-carboxylate], the IC50 was over 1000 nM in data set [3] and over 500 nM in data set [1].
With `COc1cccc(N2CCN(C(=O)O[C@@H](C)/C=C\C(=O)N[C@H]3CC[C@@H](C/C=C(C)/C=C/[C@@H]4C[C@]5(CO5)CC(C)(C)O4)CC3)CC2)c1` [Compound 25, (S,Z)-5-((1R,4R)-4-((2E,4E)-5-((3R,5S)-7,7-dimethyl-1,6-dioxaspiro[2.5]octan-5-yl)-3-methylpenta-2,4-dienyl)cyclohexylamino)-5-oxopent-3-en-2-yl 4-(3-methoxyphenyl)piperazine-1-carboxylate], the IC50 in data set [3] is over 500 nM; in data set [1] it was over 2500 nM; in data set [2] it was over 500 nM; in data set [4], over 1250 nM.
On to `CC(/C=C/[C@@H]1C[C@]2(CO2)CC(C)(C)O1)=C\C[C@H]1CC[C@@H](NC(=O)/C=C\[C@H](C)OC(=O)N2CCN(C)CC2)CC1` [Compound 26, (S,Z)-5-((1R,4R)-4-((2E,4E)-5-((3R,5S)-7,7-dimethyl-1,6-dioxaspiro[2.5]octan-5-yl)-3-methylpenta-2,4-dienyl)cyclohexylamino)-5-oxopent-3-en-2-yl 4-methylpiperazine-1-carboxylate], for which the IC50 in data set [3] was over 500 nM; in data set [1] it was over 2500 nM; in data set [2] it was over 500 nM; in data set [4] it was over 500 nM.
As to `CC(/C=C/[C@@H]1C[C@]2(CO2)CC(C)(C)O1)=C\C[C@H]1CC[C@@H](NC(=O)/C=C\[C@H](C)OC(=O)N2CCN(CCO)CC2)CC1` [Compound 27, (S,Z)-5-((1R,4R)-4-((2E,4E)-5-((3R,5S)-7,7-dimethyl-1,6-dioxaspiro[2.5]octan-5-yl)-3-methylpenta-2,4-dienyl)cyclohexylamino)-5-oxopent-3-en-2-yl 4-(2-hydroxyethyl)piperazine-1-carboxylate], the IC50 is over 500 nM in data set [3], over 2500 nM in data set [1], over 500 nM in data set [2] and over 1250 nM in data set [4].
Turning to `CC(/C=C/[C@@H]1C[C@](O)(CCl)CC(C)(C)O1)=C\C[C@H]1CC[C@@H](NC(=O)/C=C\[C@H](C)OC(=O)N2CCN(C3CCCCCC3)CC2)CC1` [Compound 28, (S,Z)-5-((1R,4R)-4-((2E,4E)-5-((2S,4R)-4-(chloromethyl)-4-hydroxy-6,6-dimethyltetrahydro-2H-pyran-2-yl)-3-methylpenta-2,4-dienyl)cyclohexylamino)-5-oxopent-3-en-2-yl 4-cycloheptylpiperazine-1-carboxylate], the IC50 in data set [3] was over 10000 nM; in data set [1] it was over 5000 nM; in data set [4], over 1250 nM.
`CC(/C=C/[C@H]1OCC[C@@]2(CO2)[C@@H]1O)=C\C[C@H]1CC[C@@H](NC(=O)/C=C\[C@H](C)OC(=O)C(C)C)CC1` [Compound 38, (S,Z)-5-((1S,4R)-4-((2E,4E)-5-((3R,4R,5R)-4-hydroxy-1,6-dioxaspiro[2.5]octan-5-yl)-3-methylpenta-2,4-dienyl)cyclohexylamino)-5-oxopent-3-en-2-yl isobutyrate]: the IC50 was over 10000 nM in data set [1] and over 1000 nM in data set [2].
Consider `CC(/C=C/[C@@H]1C[C@]2(CO2)CC(C)(C)O1)=C\C[C@H]1OC[C@@H](NC(=O)/C=C\[C@H](C)OC(=O)C(C)C)CO1` [Compound 48, (S,Z)-5-((2R,5R)-2-((2E,4E)-5-((3R,5S)-7,7-dimethyl-1,6-dioxaspiro[2.5]octan-5-yl)-3-methylpenta-2,4-dienyl)-1,3-dioxan-5-ylamino)-5-oxopent-3-en-2-yl isobutyrate], for which the IC50 stood at 5200 nM in data set [1] and 170 nM in data set [2]. Also, in data set [5] (after 6 weeks), the “compound remaining in the buffer solution” value was determined as 58%. Also, the degradable products entry in data set [5] (after 1 day) is given as “No degradable products were found”. In addition, the half-life at 100 μM in data set [5] (PBS buffer, read-out: calculated half life (converted)) is 50.4 days.
`CC(/C=C/[C@@H]1C[C@]2(CO2)CC(C)(C)O1)=C\C[C@H]1OC[C@@H](NC(=O)/C=C\[C@H](C)OC(=O)C(C)(C)C)CO1` [Compound 49, (S,Z)-5-((2R,5R)-2-((2E,4E)-5-((3R,5S)-7,7-dimethyl-1,6-dioxaspiro[2.5]octan-5-yl)-3-methylpenta-2,4-dienyl)-1,3-dioxan-5-ylamino)-5-oxopent-3-en-2-yl pivalate]: the IC50 turned out to be 1180 nM in data set [1] and 340 nM in data set [2].
The corresponding values for `CC(=O)O[C@@H](C)CCC(=O)N[C@H]1CO[C@@H](C/C=C(C)/C=C/[C@@H]2C[C@]3(CO3)CC(C)(C)O2)OC1` [Compound 53, (S)-5-((2R,5R)-2-((2E,4E)-5-((3R,5S)-7,7-dimethyl-1,6-dioxaspiro[2.5]octan-5-yl)-3-methylpenta-2,4-dienyl)-1,3-dioxan-5-ylamino)-5-oxopentan-2-yl acetate] are over 10000 nM and over 1000 nM.

For orientation: IC50 means the concentration needed to halve the response being measured. Usually half-life stands for the time in which the quantity being followed falls by half.
